Data taken from patent US20090247572A1, “AGENT FOR TREATING ATRIAL FIBRILLATION” (priority 2005, published 2009).

Experiments:
[1] = test system: Canine Cardiac Atrioventricular Node Function; experiment: Test of the Suppression of Canine Cardiac Atrioventricular Node Function; type: in vivo; conditions: anesthetized male beagle dogs, 0.1 mg/kg intravenously, 1 hour after administration (compound A), 30 minutes (Verapamil), vs control group; for change in AH intervals in the His bundle electrocardiograms during high-frequent stimulation by pacing: pacing the right atrium at intervals of 400 msec and 300 msec
Source text: Male beagle dogs were employed in this test. Under halothane anesthesia, an electrode catheter was inserted from the left femoral artery and the front end thereof was placed in the non-coronary cusp of His bundle to thereby record the His bundle electrocardiogram. A pacing catheter was inserted via a sheath introducer placed in the right femoral vein and the front end thereof was fixed to the inner wall of the right atrium. Electrodes for recording body surface electrocardiogram were attached to the four limbs and thus the second-lead electrocardiogram was recorded. A drug was administered via the sheath introducer placed in the left femoral vein.
Verapamil, which was used as a comparative compound, was intravenously administered in a dose of 0.1 mg/kg. A group to which a vehicle was administered was referred to as the control group.
After the stabilization period following the surgical operation, AH intervals in the His bundle electrocardiograms were measured in the sinus rhythm and during pacing the right atrium at intervals of 400 msec and 300 msec. […] In the case of the comparative drug Verapamil, the AH intervals in the His bundle electrocardiogram as described above were measured before the administration and 30 minutes after the administration. The effect of a compound was expressed in the change in the AH intervals in the individual His bundle electrocardiograms in the sinus rhythm and during pacing the right atrium at intervals of 400 msec and 300 msec from the value before the administration of the drug and the data were compared with the data of the control group (Student's t-test) at a significant level of 5%. The term “AH interval in His bundle electrocardiogram” means the period of time wherein an electrical excitation generated at the atrium passes the atrioventricular node and arrives at His bundle.

[2] = test system: Anesthetized Swine Ventricular Rate; experiment: Test of Measurement of Anesthetized Swine Ventricular Rate; type: in vivo, pigs (Landrace/White F1)
Experimental: Male pigs (Landrace/White F1) were employed in this test. Under pentbarbital anesthesia, a thoracotomy was performed at the fourth right intercostal space and an electrode for electrical stimulation was attached to the right atrial surface thus exposed. Electrodes for recording body surface electrocardiogram were attached to the four limbs and thus the second-lead electrocardiogram was recorded. A catheter for drug administration was placed in the right femoral vein. Compound A was intravenously administered in a dose of 0.3 mg/kg. Atenolol, which was a β-blocker used as a comparative compound, was intravenously administered in a dose of 1 mg/kg. A group to which a vehicle was administered was referred to as the control group. A 50 Hz burst stimulation was applied to the right atrium via the electrode for electrical stimulation and the ventricular rate per minute was measured as R-waves in the body surface electrocardiogram. Thirty minutes after the administration of compound A or the comparative drug, a 50 Hz burst stimulation was applied again to the right atrium and then the R-waves per minute in the body surface electrocardiogram were measured.

SMILES	change in AH intervals in the His bundle electrocardiograms during high-frequent stimulation by pacing [1]	change in AH interval in the His bundle electrocardiogram in the sinus rhythm [1]	change in ventricular rate (R waves per minute) during the 50 Hz burst stimulation ([2]; anesthetized male pigs, 0.3 mg/kg intravenously, 30 minutes after administration, 50 Hz burst stimulation of right atrium, vs control group)	efficacy relative to Atenolol in controlling the ventricular rate ([2]; anesthetized pigs, compound A 0.3 mg/kg vs Atenolol 1 mg/kg intravenously)
COc1cc2c(cc1OC)CC(=O)N(CCCN(C)C[C@H]1Cc3cc(OC)c(OC)cc31)CC2 [Ivabradine]	no significant difference at a significant level of 5% was observed	do not suppress the atrioventricular node function in the sinus rhythm		
COc1ccc(CCN(C)CCCC(C#N)(c2ccc(OC)c(OC)c2)C(C)C)cc1OC (centres unmarked) [Verapamil]	significantly prolonged	significantly prolonged		
COc1cc2c(cc1OC)CN(C(=O)[C@@H]1CCCN(CCNC(=O)c3ccc(F)cc3)C1)CC2 [compound A, (−)-N-{2-[(R)-3-(6,7-dimethoxy-1,2,3,4-tetrahydroisoquinoline-2-carbonyl)piperidino]ethyl}-4-fluorobenzamide monophosphate]	prolonged at a significant level of 1%	no effect	significantly decreases	stronger by thrice or more
